Assay results published in ChEMBL document CHEMBL5665443, “Enzyme Inhibitor Single Concentration assay results for EUbOPEN Chemogenomics Library” (2024).

Key:
[1] = biological target: T1, Endonuclease III-like protein 1 (Homo sapiens) (UniProt P78549); details: Hit No;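 also: enzyme assay tracking NTHL1 cutting and release of a quenched double-stranded DNA oligo substrate, read as fluorescence at 594 nm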
T1 sequence (whole entry): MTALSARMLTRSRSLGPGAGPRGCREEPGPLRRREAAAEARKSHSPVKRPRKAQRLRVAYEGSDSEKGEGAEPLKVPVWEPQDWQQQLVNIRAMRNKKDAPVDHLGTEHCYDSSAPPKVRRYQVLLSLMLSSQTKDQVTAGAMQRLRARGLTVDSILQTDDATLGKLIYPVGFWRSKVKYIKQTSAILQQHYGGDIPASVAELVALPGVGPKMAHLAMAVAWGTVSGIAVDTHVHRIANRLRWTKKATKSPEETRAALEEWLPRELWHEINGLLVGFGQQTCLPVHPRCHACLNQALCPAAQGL
Description: Inhibition of NTHL1 by quantifying inhibition of NTHL1-mediated cleavage and dissociation of quenched duplex DNA oligonucleotides, measured as fluorescence at 594 nm.

[2] = biological target: Methyl-CpG-binding domain protein 4 (Homo sapiens) (UniProt O95243); details: Hit No;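 also: MBD4 activity read as fluorescence at 594 nm from cleavage and release of a quenched duplex DNA oligonucleotide, with APE1 coupled to incise the strand and raise turnover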
Sequence of Methyl-CpG-binding domain protein 4 (Homo sapiens) (O95243 whole entry, the tested form may be a part): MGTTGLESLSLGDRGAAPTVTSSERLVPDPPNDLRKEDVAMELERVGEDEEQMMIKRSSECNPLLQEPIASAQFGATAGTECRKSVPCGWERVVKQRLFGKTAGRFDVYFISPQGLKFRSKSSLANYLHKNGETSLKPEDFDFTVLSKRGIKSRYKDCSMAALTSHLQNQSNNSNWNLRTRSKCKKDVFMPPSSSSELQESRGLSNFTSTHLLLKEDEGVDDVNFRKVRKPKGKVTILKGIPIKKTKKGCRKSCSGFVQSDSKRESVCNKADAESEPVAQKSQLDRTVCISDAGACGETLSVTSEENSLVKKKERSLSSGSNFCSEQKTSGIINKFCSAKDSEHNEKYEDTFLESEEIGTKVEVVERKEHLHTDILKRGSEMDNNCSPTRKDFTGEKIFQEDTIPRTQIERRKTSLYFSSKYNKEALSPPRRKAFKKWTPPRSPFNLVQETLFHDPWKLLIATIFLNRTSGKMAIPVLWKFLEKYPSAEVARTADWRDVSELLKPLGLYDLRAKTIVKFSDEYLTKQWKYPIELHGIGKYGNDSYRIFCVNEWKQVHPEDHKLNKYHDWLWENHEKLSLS
Description: Inhibition of MBD4 by quantifying inhibition of MBD4-mediated cleavage and dissociation of quenched duplex DNA oligonucleotides, measured as fluorescence at 594 nm. To generate a functional strand incision and increase turn-over this assay is coupled to APE1.

[3] = biological target: N-glycosylase/DNA lyase (Homo sapiens) (UniProt O15527); details: Hit No;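 also: OGG1 cleavage of a quenched duplex DNA oligonucleotide, coupled to APE1 for strand incision, read as fluorescence at 594 nm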
Sequence of N-glycosylase/DNA lyase (Homo sapiens) (O15527 whole entry): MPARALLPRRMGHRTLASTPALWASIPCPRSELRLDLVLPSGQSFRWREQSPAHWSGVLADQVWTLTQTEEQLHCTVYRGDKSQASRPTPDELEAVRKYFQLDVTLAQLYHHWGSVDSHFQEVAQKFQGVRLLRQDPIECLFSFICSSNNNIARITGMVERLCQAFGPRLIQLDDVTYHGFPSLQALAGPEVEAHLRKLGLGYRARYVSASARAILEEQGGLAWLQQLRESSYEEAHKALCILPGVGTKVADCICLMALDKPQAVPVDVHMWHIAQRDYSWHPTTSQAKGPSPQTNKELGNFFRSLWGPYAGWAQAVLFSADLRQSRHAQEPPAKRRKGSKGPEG
Description: Inhibition of OGG1 by quantifying inhibition of OGG1-mediated cleavage and dissociation of quenched duplex DNA oligonucleotides, measured as fluorescence at 594 nm. To generate a functional strand incision and increase turn-over this assay is coupled to APE1.

[4] = biological target: G/T mismatch-specific thymine DNA glycosylase (Homo sapiens) (UniProt Q13569); details: Hit No;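 also: human TDG cleavage of quenched duplex DNA oligonucleotides coupled to APE1, strand release read as fluorescence at 594 nm, inhibition of TDG activity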
Sequence of G/T mismatch-specific thymine DNA glycosylase (Homo sapiens) (Q13569 whole entry): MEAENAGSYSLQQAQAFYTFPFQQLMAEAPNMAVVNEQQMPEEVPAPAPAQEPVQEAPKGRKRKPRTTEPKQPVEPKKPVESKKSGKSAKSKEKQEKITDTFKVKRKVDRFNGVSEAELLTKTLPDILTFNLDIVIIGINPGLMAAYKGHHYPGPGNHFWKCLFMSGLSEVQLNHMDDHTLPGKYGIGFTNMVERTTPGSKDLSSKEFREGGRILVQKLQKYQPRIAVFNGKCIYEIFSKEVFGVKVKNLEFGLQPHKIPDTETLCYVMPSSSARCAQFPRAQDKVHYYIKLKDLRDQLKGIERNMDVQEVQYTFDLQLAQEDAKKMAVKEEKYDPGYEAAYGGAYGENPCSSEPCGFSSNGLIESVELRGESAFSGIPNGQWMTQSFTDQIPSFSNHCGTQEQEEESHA
Description: Inhibition of TDG by quantifying inhibition of TDG-mediated cleavage and dissociation of quenched duplex DNA oligonucleotides, measured as fluorescence at 594 nm. To generate a functional strand incision and increase turn-over this assay is coupled to APE1.

[5] = biological target: Uracil-DNA glycosylase (Homo sapiens) (UniProt P13051); details: Hit No;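 also: UNG excision on a quenched double-stranded DNA oligo probe, with APE1 added for strand incision and turnover, read as fluorescence at 594 nm as strands separate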
Sequence of Uracil-DNA glycosylase (Homo sapiens) (P13051 whole entry): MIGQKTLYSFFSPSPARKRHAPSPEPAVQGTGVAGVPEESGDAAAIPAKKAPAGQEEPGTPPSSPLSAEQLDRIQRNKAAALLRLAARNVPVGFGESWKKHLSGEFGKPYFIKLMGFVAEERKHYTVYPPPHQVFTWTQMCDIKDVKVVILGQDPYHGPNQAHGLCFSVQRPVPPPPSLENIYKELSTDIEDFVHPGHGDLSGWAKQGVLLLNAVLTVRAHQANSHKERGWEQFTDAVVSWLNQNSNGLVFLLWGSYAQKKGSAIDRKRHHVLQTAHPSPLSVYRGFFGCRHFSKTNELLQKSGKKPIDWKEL
Description: Inhibition of UNG by quantifying inhibition of UNG-mediated cleavage and dissociation of quenched duplex DNA oligonucleotides, measured as fluorescence at 594 nm. To generate a functional strand incision and increase turn-over this assay is coupled to APE1.

[6] = biological target: T2, Single-strand selective monofunctional uracil DNA glycosylase (Homo sapiens) (UniProt Q53HV7); details: Hit No;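 also: enzymatic SMUG1 assay coupled with APE1, reading fluorescence at 594 nm released when a quenched double-stranded DNA oligonucleotide substrate is cleaved and separated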
T2 sequence (whole entry): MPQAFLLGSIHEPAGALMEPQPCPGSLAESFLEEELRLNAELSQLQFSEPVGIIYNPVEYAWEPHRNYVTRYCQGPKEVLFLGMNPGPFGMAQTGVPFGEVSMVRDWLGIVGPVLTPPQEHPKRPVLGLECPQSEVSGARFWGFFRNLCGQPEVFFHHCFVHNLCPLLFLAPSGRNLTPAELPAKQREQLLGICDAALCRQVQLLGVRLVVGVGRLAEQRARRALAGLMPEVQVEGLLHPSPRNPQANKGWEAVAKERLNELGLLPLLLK
Description: Inhibition of SMUG1 by quantifying inhibition of SMUG1-mediated cleavage and dissociation of quenched duplex DNA oligonucleotides, measured as fluorescence at 594 nm. To generate a functional strand incision and increase turn-over this assay is coupled to APE1.

[7] = biological target: T3, Endonuclease 8-like 2 (Homo sapiens) (UniProt Q969S2); details: Hit No;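 also: fluorescence at 594 nm reports NEIL2 cutting and release of a quenched double-stranded DNA oligo substrate, reduced signal read as inhibition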
T3 sequence (whole entry): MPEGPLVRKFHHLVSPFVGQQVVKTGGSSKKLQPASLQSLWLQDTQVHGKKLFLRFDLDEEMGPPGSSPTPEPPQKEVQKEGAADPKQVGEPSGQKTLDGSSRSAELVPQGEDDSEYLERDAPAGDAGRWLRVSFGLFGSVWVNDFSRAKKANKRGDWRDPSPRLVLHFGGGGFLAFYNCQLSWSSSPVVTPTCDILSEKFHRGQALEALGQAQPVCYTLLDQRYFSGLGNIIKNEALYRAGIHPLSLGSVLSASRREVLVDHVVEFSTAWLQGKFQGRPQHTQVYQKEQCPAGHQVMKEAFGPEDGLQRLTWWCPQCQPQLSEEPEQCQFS
Description: Inhibition of NEIL2 by quantifying inhibition of NEIL2-mediated cleavage and dissociation of quenched duplex DNA oligonucleotides, measured as fluorescence at 594 nm.

[8] = biological target: Endonuclease 8-like 1 (Homo sapiens) (UniProt Q96FI4); details: Compound Concentration 1.0 uM, Hit No;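 also: fluorescence at 594 nm from quenched duplex DNA oligonucleotides released by NEIL1 cleavage and strand separation, reported as reduction of this enzyme activity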
Sequence of Endonuclease 8-like 1 (Homo sapiens) (Q96FI4 whole entry): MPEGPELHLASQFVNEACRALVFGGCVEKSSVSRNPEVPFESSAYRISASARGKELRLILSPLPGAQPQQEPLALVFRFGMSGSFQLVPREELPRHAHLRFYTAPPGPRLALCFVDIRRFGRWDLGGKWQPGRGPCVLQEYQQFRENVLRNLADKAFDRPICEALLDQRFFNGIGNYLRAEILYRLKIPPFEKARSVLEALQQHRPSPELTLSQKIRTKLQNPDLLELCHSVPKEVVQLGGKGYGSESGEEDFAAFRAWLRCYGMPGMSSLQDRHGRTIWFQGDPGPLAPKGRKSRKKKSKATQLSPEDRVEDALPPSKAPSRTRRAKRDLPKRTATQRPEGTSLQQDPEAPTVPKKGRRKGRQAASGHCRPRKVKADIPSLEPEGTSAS
Description: Inhibition of NEIL1 by quantifying inhibition of NEIL1-mediated cleavage and dissociation of quenched duplex DNA oligonucleotides, measured as fluorescence at 594 nm.

Structure (SMILES)	inhibition ([1]; Compound Concentration 10.0 uM) [%]	inhibition ([2]; Compound Concentration 10.0 uM) [%]	inhibition ([3]; Compound Concentration 10.0 uM) [%]	inhibition ([4]; Compound Concentration 10.0 uM) [%]	inhibition ([5]; Compound Concentration 10.0 uM) [%]	inhibition ([6]; Compound Concentration 10.0 uM) [%]	inhibition ([7]; Compound Concentration 10.0 uM) [%]	inhibition ([1]; Compound Concentration 1.0 uM) [%]	inhibition ([2]; Compound Concentration 1.0 uM) [%]	inhibition [8] [%]	inhibition ([3]; Compound Concentration 1.0 uM) [%]	inhibition ([4]; Compound Concentration 1.0 uM) [%]	inhibition ([5]; Compound Concentration 1.0 uM) [%]	inhibition ([6]; Compound Concentration 1.0 uM) [%]	inhibition ([7]; Compound Concentration 1.0 uM) [%]
O=C(NCCS(=O)(=O)c1ccc(C(F)(F)F)cn1)c1ccc(Cl)cc1	-0.63	55.1	-0.41	97.2	0.131	13.1	1.3								
COc1ccc(CC[C@@H](OC(=O)[C@@H]2CCCCN2C(=O)[C@H](c2cc(OC)c(OC)c(OC)c2)C2CCCCC2)c2cccc(OCCN3CCOCC3)c2)cc1OC	-7.86	43.3	-4.59	31.2	0.833	4.21									
CNC(=O)COc1cc2cc(Nc3nc(N4CCC(C(=O)N(C)C)CC4)ncc3Cl)cc(OC)c2n(C)c1=O	-0.63	50.6	4.56	86.8	0.116	3.52	-6.1								
CCc1cc(Nc2nccc(-c3c(-c4ccc(OC)c(C(=O)Nc5c(F)cccc5F)c4)nc4ccccn34)n2)c(OC)cc1N1CCC(N2CCN(S(C)(=O)=O)CC2)CC1								-1.31	32.9	-8.84	10.7	50.7	0.56	21.4	
C[C@H](c1ccc(F)cc1)N(Cc1cccc(C(=O)O)c1)C(=O)c1cnc2ccccc2c1	5.94	54.2	-1.34	99.9	1.51	15.5	0.531								
O=c1nc(-c2ccccn2)sc2ccccc12	2	53.8	10.7	99.2	-3.04	5.03	17.4								
CN(C)C(=O)/C(C#N)=C/c1ccc(-c2nc3cnc4c(ccn4C)c3n2C2CCCCC2)o1								0.785	95		-5.75	49.4	-0.285	2.69	-3.8
COc1cnccc1Nc1nc(-c2nn(Cc3c(F)cc(OCCO)cc3F)c3ccccc23)ncc1OC	-7.86	52.5	14.4	11.1	-1.2	6.21		4.97	47.4			29.7	1.12	7.99	-7.84
O=C1NC(c2ccccn2)Sc2ccccc21 (stereo not drawn)	-7.2	55.9	-4.34	34	-1.67	8.24	-4.83								
O=C(Nc1cccnn1)N1CCC(=Cc2cccc(Oc3ccc(C(F)(F)F)cn3)c2)CC1	5.94	65.2	-7.84	59.6	0.719	17	-7.12								
O=C(O)[C@@H]1[C@@H](Cn2nnc3ccccc3c2=O)CC[C@H]1C(=O)c1ccc(OCCC2CCOCC2)cc1	-5.23	57.8	7.75	49.2	2.54	18.6									
COc1ccc2c(c1)O[C@@H](c1ccc(OC)c(OC)c1)C[C@H]2NC(=O)C1(c2ccc3c(c2)OC(F)(F)O3)CC1	-7.86	35.4	-6.31	25.6	-6.88	-5.34	-1.51								
Cc1cnc(Nc2ccc(F)cc2Cl)nc1-c1c[nH]c(C(=O)N[C@H](CO)c2cccc(Cl)c2)c1								-6.19	-4.19	-0.127	-8.42	46.4	2.73	23.9	
C[C@H](c1ccc(F)cc1)N(Cc1ccc(Cl)c(C(=O)O)c1)C(=O)c1cnc2ccccc2c1	-7.86	52.3	8.39	31.5	1.41	16.2	-8.14								
COc1c(OCCCN2CCOCC2)ccc2c1N=C(NC(=O)c1cnc(N)nc1)N1CCN=C21								4.97	-2.38	-8.98	5.38	26.4	-3.63	20	
